The source made the active and inactive calls. The rule behind the calls is not given here. Non-standard residues stand in square brackets, D forms with d. Residues, ends and D or L forms follow the SMILES beside them. *: point of attachment. Ahx = NCCCCCC(=O)O; NHOH = ON*
What was measured:
Histone deacetylase = assay: Inhibition of HDAC in human HeLa cell extracts using Boc-Lys(Ac)-AM as substrate by fluorescence based analysis
Huh-7 [1] = assay: Antiproliferative activity against human Huh-7 cells incubated for 48 hrs by CCK8 method; type: functional, cell-based; details: Huh-7, 48 h
HepG2 = assay: Antiproliferative activity against human HepG2 cells incubated for 48 hrs by CCK8 method; type: functional, cell-based; details: HepG2, 48 h
HT-29 = assay: Antiproliferative activity against human HT-29 cells incubated for 48 hrs by CCK8 method; type: functional, cell-based; details: HT-29, 48 h
[2] = Cytotoxicity activity against human HEK293T cells incubated for 48 hrs by CCK8 method; type: toxicity, cell-based, HEK-293T
Huh-7 [3] = assay: Induction of apoptosis in human Huh-7 cells assessed as viable cells at 10 uM incubated for 24 hrs by FITC Annexin V/propidium iodide staining based flow cytometry analysis (reference value: 92.6%); type: functional; details: read-out: Activity
Huh-7 [4] = assay: Induction of apoptosis in human Huh-7 cells assessed as early apoptotic cells at 10 uM incubated for 24 hrs by FITC Annexin V/propidium iodide staining based flow cytometry analysis (reference value: 1.85%); type: functional
Huh-7 [5] = assay: Induction of apoptosis in human Huh-7 cells assessed as late apoptotic cells at 10 uM incubated for 24 hrs by FITC Annexin V/propidium iodide staining based flow cytometry analysis (reference value: 5.19%); type: functional
Huh-7 [6] = assay: Induction of apoptosis in human Huh-7 cells assessed as necrotic cells at 10 uM incubated for 24 hrs by FITC Annexin V/propidium iodide staining based flow cytometry analysis (reference value: 0.401%); type: functional
Huh-7 [7] = assay: Induction of cell cycle arrest in human Huh-7 cells assessed as accumulation of cells at sub G1 phase at 10 uM incubated for 24 hrs by FACscan flow cytometer analysis relative to control; type: functional
Huh-7 [8] = assay: Induction of cell cycle arrest in human Huh-7 cells assessed as accumulation of cells at G1 phase at 10 uM incubated for 24 hrs by FACscan flow cytometer analysis (reference value: 39.68%); type: functional
Huh-7 [9] = assay: Induction of cell cycle arrest in human Huh-7 cells assessed as accumulation of cells at S phase at 10 uM incubated for 24 hrs by FACscan flow cytometer analysis (reference value: 41.7%); type: functional
Huh-7 [10] = assay: Induction of cell cycle arrest in human Huh-7 cells assessed as accumulation of cells at G2 phase at 10 uM incubated for 24 hrs by FACscan flow cytometer analysis (reference value: 25.74%); type: functional
[11] = target: T1, Histone deacetylase (Homo sapiens) (UniProt Q13547+O15379+Q9UBN7+Q92769+Q9UQL6+Q8WUI4+Q9BY41+Q96DB2+P56524+Q9UKV0+Q969S8); assay: Inhibition of HDAC in human Huh-7 cells assessed as increase in histone H3 acetylation at 20 uM incubated for 24 hrs by Western blot analysis; type: cell-based
[12] = target: T1, Histone deacetylase (Homo sapiens); assay: Inhibition of HDAC in human HepG2 cells assessed as increase in histone H3 acetylation at 20 uM incubated for 24 hrs by Western blot analysis; type: cell-based
[13] = Drug uptake in human Huh-7 cells assessed as cell penetration incubated for 24 hrs by flow cytometry analysis; type: ADME, cell-based; details: huh-7, 24 h
[14] = Drug localization in human Huh-7 cells incubated for 24 hrs by DAPI staining based microscopy analysis; type: ADME, cell-based; details: huh-7, 24 h
[15] = Hemolytic activity in mouse erythrocytes assessed as hemolysis at 80 uM incubated for 1.5 hrs by microplate reader assay; type: toxicity, cell-based; details: erythrocyte
Huh-7 [16] = assay: Anticancer activity in human Huh-7 cells assessed as change in BCL2L11gene expression by KEGG analysis; type: functional, cell-based
Huh-7 [17] = assay: Anticancer activity in human Huh-7 cells assessed as change in WNT6 gene expression by KEGG analysis; type: functional, cell-based
Huh-7 [18] = assay: Anticancer activity in human Huh-7 cells assessed as change in BMP4 gene expression by KEGG analysis; type: functional, cell-based
Huh-7 [19] = assay: Anticancer activity in human Huh-7 cells assessed as change in JAK2 gene expression by KEGG analysis; type: functional, cell-based
Huh-7 [20] = assay: Anticancer activity in human Huh-7 cells assessed as change in BMP2 gene expression by KEGG analysis; type: functional, cell-based
Huh-7 [21] = assay: Anticancer activity in human Huh-7 cells assessed as change in TP53 gene expression by KEGG analysis; type: functional, cell-based
[22] = Stability in mouse serum measured upto 24 hrs by LC/MS analysis; type: ADME, cell-free
Huh-7 [23] = assay: Induction of apoptosis in human Huh-7 cells assessed as viable cells at 20 uM incubated for 24 hrs by FITC Annexin V/propidium iodide staining based flow cytometry analysis (reference value: 92.6%); type: functional; details: read-out: Activity
Huh-7 [24] = assay: Induction of apoptosis in human Huh-7 cells assessed as early apoptotic cells at 20 uM incubated for 24 hrs by FITC Annexin V/propidium iodide staining based flow cytometry analysis (reference value: 1.85%); type: functional
Huh-7 [25] = assay: Induction of apoptosis in human Huh-7 cells assessed as late apoptotic cells at 20 uM incubated for 24 hrs by FITC Annexin V/propidium iodide staining based flow cytometry analysis (reference value: 5.19%); type: functional
Huh-7 [26] = assay: Induction of apoptosis in human Huh-7 cells assessed as necrotic cells at 20 uM incubated for 24 hrs by FITC Annexin V/propidium iodide staining based flow cytometry analysis (reference value: 0.401%); type: functional
Huh-7 [27] = assay: Induction of cell cycle arrest in human Huh-7 cells assessed as accumulation of cells at sub G1 phase at 20 uM incubated for 24 hrs by FACscan flow cytometer analysis relative to control; type: functional
Huh-7 [28] = assay: Induction of cell cycle arrest in human Huh-7 cells assessed as accumulation of cells at G1 phase at 20 uM incubated for 24 hrs by FACscan flow cytometer analysis (reference value: 39.68%); type: functional
Huh-7 [29] = assay: Induction of cell cycle arrest in human Huh-7 cells assessed as accumulation of cells at S phase at 20 uM incubated for 24 hrs by FACscan flow cytometer analysis (reference value: 41.7%); type: functional
Huh-7 [30] = assay: Induction of cell cycle arrest in human Huh-7 cells assessed as accumulation of cells at G2 phase at 20 uM incubated for 24 hrs by FACscan flow cytometer analysis (reference value: 25.74%); type: functional
[31] = target: T1, Histone deacetylase (Homo sapiens); assay: Inhibition of HDAC in human Huh-7 cells assessed as increase in histone H3 acetylation at 20 to 40 uM incubated for 24 hrs by Western blot analysis; type: cell-based; details: dose 20-40 µM
[32] = target: T1, Histone deacetylase (Homo sapiens); assay: Inhibition of HDAC in human HepG2 cells assessed as increase in histone H3 acetylation at 20 to 40 uM incubated for 24 hrs by Western blot analysis; type: cell-based; details: dose 20-40 µM
Huh-7 [33] = assay: Induction of apoptosis in human Huh-7 cells assessed as viable cells at 5 uM incubated for 24 hrs by FITC Annexin V/propidium iodide staining based flow cytometry analysis (reference value: 92.6%); type: functional; details: read-out: Activity
Huh-7 [34] = assay: Induction of apoptosis in human Huh-7 cells assessed as early apoptotic cells at 5 uM incubated for 24 hrs by FITC Annexin V/propidium iodide staining based flow cytometry analysis (reference value: 1.85%); type: functional
Huh-7 [35] = assay: Induction of apoptosis in human Huh-7 cells assessed as late apoptotic cells at 5 uM incubated for 24 hrs by FITC Annexin V/propidium iodide staining based flow cytometry analysis (reference value: 5.19%); type: functional
Huh-7 [36] = assay: Induction of apoptosis in human Huh-7 cells assessed as necrotic cells at 5 uM incubated for 24 hrs by FITC Annexin V/propidium iodide staining based flow cytometry analysis (reference value: 0.401%); type: functional
Huh-7 [37] = assay: Induction of cell cycle arrest in human Huh-7 cells assessed as accumulation of cells at sub G1 phase at 2.5 uM incubated for 24 hrs by FACscan flow cytometer analysis relative to control; type: functional
Huh-7 [38] = assay: Induction of cell cycle arrest in human Huh-7 cells assessed as accumulation of cells at G1 phase at 2.5 uM incubated for 24 hrs by FACscan flow cytometer analysis (reference value: 39.68%); type: functional
Huh-7 [39] = assay: Induction of cell cycle arrest in human Huh-7 cells assessed as accumulation of cells at S phase at 2.5 uM incubated for 24 hrs by FACscan flow cytometer analysis (reference value: 41.7%); type: functional
Huh-7 [40] = assay: Induction of cell cycle arrest in human Huh-7 cells assessed as accumulation of cells at G2 phase at 2.5 uM incubated for 24 hrs by FACscan flow cytometer analysis (reference value: 25.74%); type: functional

IC50 (Histone deacetylase) [µM] | IC50 (Huh-7 [1]) [µM] | IC50 (HepG2) [µM] | IC50 (HT-29) [µM] | inhibition [11] | inhibition [12] | SMILES | viability at 10 µM (Huh-7 [3]) [%] | Activity (Huh-7 [4]) [%] | Activity (Huh-7 [5]) [%] | Activity (Huh-7 [6]) [%] | Activity (Huh-7 [7]) [%] | Activity (Huh-7 [8]) [%] | Activity (Huh-7 [9]) [%] | Activity (Huh-7 [10]) [%] | also measured
0.446 | 28.1 | 34 | 42.6 | Active | Active | CSCC[C@H](NC(=O)[C@H](CCCNC(=N)N)NC(=O)[C@H](CC(C)C)NC(=O)[C@H](CCCNC(=N)N)NC(=O)[C@H](CCSC)NC(=O)[C@H](CC(C)C)NC(=O)[C@H](CCCNC(=N)N)NC(=O)[C@H](CC(C)C)NC(=O)[C@H](CC(C)C)NC(=O)[C@H](CCCNC(=N)N)NC(C)=O)C(=O)N[C@@H](CC(C)C)C(=O)N[C@@H](CC(C)C)C(=O)N[C@@H](CCCNC(=N)N)C(=O)N[C@@H](CC(C)C)C(=O)NCCCCCC(=O)NO (Ac-RLLRLMRLRMLLRL[Ahx]-{NHOH}) | 75 | 5.46 | 16.5 | 3.03 | 10.82 | 47.63 | 37.76 | 9.53 | IC50 at 48 h [2]: 39.8 µM; Drug uptake [13]: Active; Drug uptake [14]: Active
> 100 | – | – | – | inactive | inactive | CSCC[C@H](NC(=O)[C@H](CCCNC(=N)N)NC(=O)[C@H](CC(C)C)NC(=O)[C@H](CCCNC(=N)N)NC(=O)[C@H](CCSC)NC(=O)[C@H](CC(C)C)NC(=O)[C@H](CCCNC(=N)N)NC(=O)[C@H](CC(C)C)NC(=O)[C@H](CC(C)C)NC(=O)[C@H](CCCNC(=N)N)NC(C)=O)C(=O)N[C@@H](CC(C)C)C(=O)N[C@@H](CC(C)C)C(=O)N[C@@H](CCCNC(=N)N)C(=O)N[C@@H](CC(C)C)C(N)=O (Ac-RLLRLMRLRMLLRL-NH2) | 69.6 | 3.93 | 21.1 | 5.39 | 6.9 | 58.07 | 36.8 | 6.43 | Activity [15]: Toxic
0.31 | 43.7 | 52.2 | 54.6 | – | – | CC(=O)N[C@@H](CCCNC(=N)N)C(=O)N[C@@H](CC(C)C)C(=O)N[C@@H](CC(C)C)C(=O)N[C@@H](CCCNC(=N)N)C(=O)N[C@@H](CC(C)C)C(=O)N[C@H]1CC[S+](C)Cc2cccc(c2)C[S+](C)CC[C@@H](C(=O)N[C@@H](CC(C)C)C(=O)N[C@@H](CC(C)C)C(=O)N[C@@H](CCCNC(=N)N)C(=O)N[C@@H](CC(C)C)C(=O)NCCCCCC(=O)NO)NC(=O)[C@H](CCCNC(=N)N)NC(=O)[C@H](CC(C)C)NC(=O)[C@H](CCCNC(=N)N)NC1=O (some centres undefined) | – | – | – | – | – | – | – | – | Activity (Huh-7 [16]): Active; Activity (Huh-7 [17]): Active; Activity (Huh-7 [18]): Active; Activity (Huh-7 [19]): Active; Activity (Huh-7 [20]): Active; Activity (Huh-7 [21]): Active; Stability [22]: Stable; viability at 20 µM (Huh-7 [23]): 73%; Activity (Huh-7 [24]): 4.97%; Activity (Huh-7 [25]): 18.2%; Activity (Huh-7 [26]): 3.89%; Activity (Huh-7 [27]): 2.98%; Activity (Huh-7 [28]): 51.86%; Activity (Huh-7 [29]): 33.25%; Activity (Huh-7 [30]): 17.34%; inhibition [31]: Active; inhibition [32]: Active
> 100 | – | – | – | – | – | CC(=O)N[C@@H](CCCNC(=N)N)C(=O)N[C@@H](CC(C)C)C(=O)N[C@@H](CC(C)C)C(=O)N[C@@H](CCCNC(=N)N)C(=O)N[C@@H](CC(C)C)C(=O)N[C@H]1CC[S+](C)Cc2cccc(c2)C[S+](C)CC[C@@H](C(=O)N[C@@H](CC(C)C)C(=O)N[C@@H](CC(C)C)C(=O)N[C@@H](CCCNC(=N)N)C(=O)N[C@@H](CC(C)C)C(=O)O)NC(=O)[C@H](CCCNC(=N)N)NC(=O)[C@H](CC(C)C)NC(=O)[C@H](CCCNC(=N)N)NC1=O (some centres undefined) | – | – | – | – | – | – | – | – | –
– | – | – | – | – | – | O=C(CCCCCCC(=O)Nc1ccccc1)NO [VORINOSTAT] | – | – | – | – | – | – | – | – | viability at 5 µM (Huh-7 [33]): 47.2%; Activity (Huh-7 [34]): 6.4%; Activity (Huh-7 [35]): 37%; Activity (Huh-7 [36]): 9.35%; Activity (Huh-7 [37]): 7.16%; Activity (Huh-7 [38]): 46.95%; Activity (Huh-7 [39]): 25.97%; Activity (Huh-7 [40]): 18.46%

— ChEMBL document CHEMBL5252625, “Development of sulfonium tethered peptides conjugated with HDAC inhibitor to improve selective toxicity for cancer cells” (Bioorg Med Chem, 2023)
